Measurements as given in patent US8153556B2, “Synergistic herbicidal compositions containing benfluralin” (Dow AgroSciences LLC, priority 2009, dated 2012).

Assays:
Test in all cases: Pre-emergence field weed control in winter wheat (visual rating)
Assay type in all cases: in vivo
[1] = system: GALAP = Galium aparine L. (cleavers); conditions: benfluralin 1,000 g ai/ha, prosulfocarb 3,000 g ai/ha
Procedure: (§1) Soft winter wheat was planted using normal cultural practices in France and Germany in October under normal environmental conditions that allowed rapid germination and growth of wheat and weeds. Fields were prepared as per normal cultural practices, by applying appropriate fertilizers for normal winter wheat growth and yield, working and leveling the ground, and planting at normal time of year using 150 to 170 kg/ha seed with mechanical planters to maximize emergence, growth and yield. Weed infestations varied from 280 to 500 plants per square meter (plants/m^2).
(§2) Treatments consisted of benfluralin applied alone, as well as diflufenican, flufenacet and prosulfocarb applied alone, and in combination with benfluralin, to measure herbicidal weed control and any synergistic interactions. These treatments were applied using backpack sprayers applying spray volumes of 200-250 liters per hectare (L/ha) at a spray pressure of 230 KPA to plots 2.5 meters (m)×8 m, randomized 4 times per treatment. All treatments were applied pre-emergence to the soil, after planting the winter wheat. The pre-emergence treatments were activated with normal rainfall. Treatments were rated on a 0-100% scale, with 0%=no control and 100%=complete control.
(§3) Colby's equation was used to determine the herbicidal effects expected from the mixtures (Colby, S. R. Weeds 1967, 15, 20-22. Calculation of the synergistic and antagonistic response of herbicide combinations).
(§4) The following equation was used to calculate the expected activity of mixtures containing two active ingredients, A and B: Expected=A+B−(A×B/100)
(§5) A=observed efficacy of active ingredient A at the same concentration as used in the mixture.
(§6) B=observed efficacy of active ingredient B at the same concentration as used in the mixture.
(§7) The herbicide tankmix combinations tested, application rates and ratios employed, plant species tested, and results are given in Tables 1 to 6.

[2] = system: GERRT = Geranium rotundifolium L. (round-leaved Cranesbill); conditions: benfluralin 1,000 g ai/ha
Procedure: as §1, §2, §3, §4, §5, §6, §7

[3] = system: ALOMY = Alopecurus agrestis L. (blackgrass)
Procedure: as §1, §2, §3, §4, §5, §6, §7

[4] = system: VERHE = Veronica hederifolia L. (ivyleaf speedwell); conditions: Test 2, 150 days after application, benfluralin 1,200 g ai/ha, flufenacet 240 g ai/ha
Procedure: as §1, §2, §3, §4, §5, §6, §7

[5] = Test 1, 27 days after application
[6] = Test 1, 174 days after application
[7] = Test 1, 236 days after application
[8] = Test 1, 27 days after application, diflufenican 100 g ai/ha
[9] = Test 1, 27 days after application, prosulfocarb 3,000 g ai/ha
[10] = Test 1, 174 days after application, prosulfocarb 3,000 g ai/ha
[11] = Test 1, 236 days after application, diflufenican 100 g ai/ha
[12] = Test 1, 236 days after application, prosulfocarb 3,000 g ai/ha
[13] = Test 1, 13 days after application, benfluralin 1,200 g ai/ha, flufenacet 240 g ai/ha
[14] = Test 1, 27 days after application, benfluralin 1,000 g ai/ha, diflufenican 100 g ai/ha
[15] = Test 1, 27 days after application, benfluralin 1,000 g ai/ha, prosulfocarb 3,000 g ai/ha
[16] = Test 1, 174 days after application, benfluralin 1,000 g ai/ha, diflufenican 100 g ai/ha
[17] = Test 1, 174 days after application, benfluralin 1,000 g ai/ha, prosulfocarb 3,000 g ai/ha
[18] = Test 1, 236 days after application, benfluralin 1,000 g ai/ha, diflufenican 100 g ai/ha
[19] = Test 1, 236 days after application, benfluralin 1,000 g ai/ha, prosulfocarb 3,000 g ai/ha
[20] = Test 1, 236 days after application, benfluralin 1,200 g ai/ha, flufenacet 240 g ai/ha
[21] = Test 2, 169 days after application, benfluralin 1,000 g ai/ha, diflufenican 100 g ai/ha
[22] = Test 2, 189 days after application, benfluralin 1,000 g ai/ha, prosulfocarb 3,000 g ai/ha
[23] = Test 2, 189 days after application, benfluralin 1,200 g ai/ha, flufenacet 240 g ai/ha
[24] = Test 2, 199 days after application, benfluralin 1,000 g ai/ha, diflufenican 100 g ai/ha

Compound | % Visual Weed Control GALAP Obs [1, 5] [%] | % Visual Weed Control GALAP Obs [1, 6] [%] | % Visual Weed Control GALAP Obs [1, 7] [%] | % Visual Weed Control GERRT Obs [2, 8] [%] | % Visual Weed Control GERRT Obs [2, 9] [%] | % Visual Weed Control GERRT Obs [2, 10] [%] | % Visual Weed Control GERRT Obs [2, 11] [%] | % Visual Weed Control GERRT Obs [2, 12] [%] | % Visual Weed Control ALOMY Obs [3, 13] [%] | % Visual Weed Control ALOMY Obs [3, 14] [%] | % Visual Weed Control ALOMY Obs [3, 15] [%] | % Visual Weed Control ALOMY Obs [3, 16] [%] | % Visual Weed Control ALOMY Obs [3, 17] [%] | % Visual Weed Control ALOMY Obs [3, 18] [%] | % Visual Weed Control ALOMY Obs [3, 19] [%] | % Visual Weed Control ALOMY Obs [3, 20] [%] | % Visual Weed Control ALOMY Obs [3, 21] [%] | % Visual Weed Control ALOMY Obs [3, 22] [%] | % Visual Weed Control ALOMY Obs [3, 23] [%] | % Visual Weed Control ALOMY Obs [3, 24] [%] | also measured
CCCCN(CC)c1c([N+](=O)[O-])cc(C(F)(F)F)cc1[N+](=O)[O-] [Benfluralin, N-butyl-N-ethyl-2,6-dinitro-4-(trifluoromethyl)benzenamine] | 7 | 8 | 7 | 6 | 6 | 7 | 7 | 7 | 7 | 17 | 17 | 20 | 20 | 23 | 23 | 29 | 0 | 0 | 0 | 0 | % Visual Weed Control VERHE Obs [4]: 43%
CCCN(CCC)C(=O)SCc1ccccc1 [Prosulfocarb, S-(phenylmethyl) dipropylcarbamothioate] | 37 | 39 | 42 | – | 21 | 25 | – | 27 | – | – | 30 | – | 33 | – | 35 | – | – | 30 | – | – | –
CC(C)N(C(=O)COc1nnc(C(F)(F)F)s1)c1ccc(F)cc1 [Flufenacet, N-(4-fluorophenyl)-N-(1-methylethyl)-2-[[5-(trifluoromethyl)-1,3,4-thiadiazol-2-yl]oxy]acetamide] | – | – | – | – | – | – | – | – | 26 | – | – | – | – | – | – | 80 | – | – | 82 | – | % Visual Weed Control VERHE Obs [4]: 0%
O=C(Nc1ccc(F)cc1F)c1cccnc1Oc1cccc(C(F)(F)F)c1 [Diflufenican, N-(2,4-difluorophenyl)-2-[3-(trifluoromethyl)phenoxy]-3-pyridinecarboxamide] | – | – | – | 72 | – | – | 63 | – | – | 19 | – | 22 | – | 23 | – | – | 0 | – | – | 7 | –
